Source: patent US8487108B2, “Piperidinyl carbamate intermediates for the synthesis of aspartic protease inhibitors” (Vitae Pharmaceuticals, Inc., priority 2005, dated 2013)

What follows are compounds tested against T1, trypsin-activated recombinant human renin (Homo sapiens, UniProt P00797) (assay: Renin fluorescence assay (internally quenched peptide substrate)). Details: compounds I*.
T1 sequence (P00797 67-406): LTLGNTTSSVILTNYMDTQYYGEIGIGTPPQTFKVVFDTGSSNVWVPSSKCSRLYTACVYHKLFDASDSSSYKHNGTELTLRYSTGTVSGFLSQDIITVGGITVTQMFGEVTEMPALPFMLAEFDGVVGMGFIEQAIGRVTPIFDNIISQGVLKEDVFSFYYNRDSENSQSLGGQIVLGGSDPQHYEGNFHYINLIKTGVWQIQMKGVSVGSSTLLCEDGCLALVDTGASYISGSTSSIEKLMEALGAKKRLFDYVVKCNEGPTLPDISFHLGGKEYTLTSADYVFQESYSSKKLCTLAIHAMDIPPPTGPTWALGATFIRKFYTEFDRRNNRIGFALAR
Assay type: biochemical
In short: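 Cleavage of an angiotensinogen-derived DABCYL-quenched peptide by trypsin-activated recombinant human renin (0.2-2 nM final) in 50 mM BES, 150 mM NaCl, 0.25 mg/mL BSA, pH 7.0; compounds 10 μM to 1 nM final. Fluorescence (ex 340/em 495 nm) followed 60-360 min at rt; linear-slope rates give percent inhibition versus uninhibited control.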

Row | SMILES | IC50 [nM]
1 | COC(=O)NCCO[C@@H](c1cccc(Cl)c1)[C@@H]1CCCN(C(=O)NC[C@@H](N)C[C@H]2CCCCOC2)C1 [I*-68a, methyl 2-((R)-((R)-1-((S)-2-amino-3-((R)-oxepan-3-yl)propylcarbamoyl)piperidin-3-yl)(3-chlorophenyl)methoxy)ethylcarbamate] | < 1
2 | CNC[C@@H](C[C@H]1CCCC[C@@H]1O)NC(=O)N1CCC[C@@H]([C@@H](OCCNC(=O)OC)c2cccc(Cl)c2)C1 (relative stereo) [I*-104a, methyl 2-((R)-(3-chlorophenyl)((R)-1-((R)-1-((1R*,2S*)-2-hydroxycyclohexyl)-3-(methylamino)propan-2-ylcarbamoyl)piperidin-3-yl)methoxy)ethylcarbamate] | < 20
3 | CNC[C@H](CC1CCCCC1)NC(=S)N1CCC[C@@H]([C@@H](OCCNC(=O)OC)c2cccc(Cl)c2)C1 [I*-111a, methyl 2-((R)-(3-chlorophenyl)((R)-1-((S)-1-cyclohexyl-3-(methylamino)propan-2-ylcarbamothioyl)piperidin-3-yl)methoxy)ethylcarbamate] | < 1
4 | CNC[C@H](CC1CCOCC1)NC(=O)N1CCC[C@@H]([C@@H](OCCNC(=O)OC)c2cc(F)cc(F)c2)C1 [I*-70a, methyl 2-((R)-(3,5-difluorophenyl)((R)-1-((S)-1-(methylamino)-3-(tetrahydro-2H-pyran-4-yl)propan-2-ylcarbamoyl)piperidin-3-yl)methoxy)ethylcarbamate] | < 20
5 | CNC[C@H](C[C@H]1CCCOC1)NC(=O)N1CCCC[C@@H]([C@@H](OCCNC(=O)OC)c2cccc(F)c2)C1 [I*-56a, methyl 2-((R)-(3-fluorophenyl)((R)-1-((S)-1-(methylamino)-3-((R)-tetrahydro-2H-pyran-3-yl)propan-2-ylcarbamoyl)azepan-3-yl)methoxy)ethylcarbamate] | < 10
6 | CNC[C@H](CC1(C)CCCCC1)NC(=O)N1CCC[C@@H]([C@@H](OCCNC(=O)OC)c2cccc(F)c2)C1 [I*-43a, methyl 2-((R)-(3-fluorophenyl)((R)-1-((S)-1-(methylamino)-3-(1-methylcyclohexyl)propan-2-ylcarbamoyl)piperidin-3-yl)methoxy)ethylcarbamate] | < 10
7 | CNC[C@@H](NC(=O)N1CCC[C@@H]([C@@H](OCCNC(=O)OC)c2cccc(F)c2)C1)[C@@H](O)C1CCCCC1 [I*-48a, methyl 2-((R)-((R)-1-((1S,2R)-1-cyclohexyl-1-hydroxy-3-(methylamino)propan-2-ylcarbamoyl)piperidin-3-yl)(3-fluorophenyl)methoxy)ethylcarbamate] | < 10
8 | CNC[C@H](CC1(C)CCCCC1)NC(=O)N1CCC[C@@H]([C@@H](OCCNC(=O)OC)c2cc(F)cc(F)c2)C1 [I*-95a, methyl 2-((R)-(3,5-difluorophenyl)((R)-1-((S)-1-(methylamino)-3-(1-methylcyclohexyl)propan-2-ylcarbamoyl)piperidin-3-yl)methoxy)ethylcarbamate] | < 10
9 | CNC[C@H](CC1CCCCC1)NC(=O)N1CCCC[C@@H]([C@@H](OCCNC(=O)OC)c2cccc(Cl)c2)C1 [I*-91a, methyl 2-((R)-(3-chlorophenyl)((R)-1-((S)-1-cyclohexyl-3-(methylamino)propan-2-ylcarbamoyl)azepan-3-yl)methoxy)ethylcarbamate] | < 10
10 | CNC[C@H](CC1CCOCC1)NC(=O)N1CCC[C@@H]([C@H](OCCNC(=O)OC)c2cccs2)C1 [I*-16a, methyl 2-((S)-((R)-1-((S)-1-(methylamino)-3-(tetrahydro-2H-pyran-4-yl)propan-2-ylcarbamoyl)piperidin-3-yl)(thiophen-2-yl)methoxy)ethylcarbamate] | > 50
11 | CNC[C@H](CC1CCCCC1)NC(=O)N1CCC[C@H]([C@@H](OCCNC(=O)OC)c2c(C)ccc(F)c2F)C1 [I*-97a, methyl 2-((R)-((S)-1-((S)-1-cyclohexyl-3-(methylamino)propan-2-ylcarbamoyl)piperidin-3-yl)(2,3-difluoro-6-methylphenyl)methoxy)ethylcarbamate] | < 20
12 | CNC[C@H](CC1CCCCC1)NC(=O)N1CCC[C@@H]([C@@H](OCCNC(=O)OC)c2ccccc2)C1 (mixture of isomers) [I*-2a, methyl 2-((R)—((R)-1-((±)-1-cyclohexyl-3-(methylamino)propan-2-ylcarbamoyl)piperidin-3-yl)(phenyl)methoxy)ethylcarbamate] | < 10

Results, then the compound that gave them:

Row | IC50 [nM] | SMILES
13 | > 50 | CNC[C@H](CCC1(OC)CCCC1)NC(=O)N1CCC[C@@H]([C@@H](OCCNC(=O)OC)c2cc(F)cc(F)c2)C1 [I*-134a, methyl 2-((R)-(3,5-difluorophenyl)((R)-1-((S)-4-(1-methoxycyclopentyl)-1-(methylamino)butan-2-ylcarbamoyl)piperidin-3-yl)methoxy)ethylcarbamate]
14 | < 10 | CNCC(C[C@@H]1C[C@@H](F)[C@@H](F)C1)NC(=O)N1CCC[C@@H]([C@@H](OCCNC(=O)OC)c2cccc(Cl)c2)C1 (stereo partly drawn) [I*-125a, methyl 2-((R)-(3-chlorophenyl)((R)-1-((S)-1-((1s,3R,4S)-3,4-difluorocyclopentyl)-3-(methylamino)propan-2-ylcarbamoyl)piperidin-3-yl)methoxy)ethylcarbamate]
15 | < 1 | CNC[C@H](CC1CCC(F)(F)CC1)NC(=O)N1CCC[C@@H]([C@@H](OCCNC(=O)OC)c2cc(F)cc(F)c2)C1 [I*-147a, methyl 2-((R)-((R)-1-((S)-1-(4,4-difluorocyclohexyl)-3-(methylamino)propan-2-ylcarbamoyl)piperidin-3-yl)(3,5-difluorophenyl)methoxy)ethylcarbamate]
16 | < 1 | CN[C@H](CNC(=O)N1CCC[C@@H]([C@@H](OCCNC(=O)OC)c2cc(F)cc(Cl)c2)C1)C[C@H]1CCCCOC1 [I*-143a, methyl 2-((R)-(3-chloro-5-fluorophenyl)((R)-1-((S)-2-(methylamino)-3-((R)-oxepan-3-yl)propylcarbamoyl)piperidin-3-yl)methoxy)ethylcarbamate]
17 | < 10 | CNC[C@H](C[C@H]1CCC(C)(C)OC1)NC(=O)N1CCC[C@@H]([C@@H](OCCNC(=O)OC)c2cc(F)cc(F)c2)C1 [I*-155a, methyl 2-((R)-(3,5-difluorophenyl)((R)-1-((S)-1-((R)-6,6-dimethyl-tetrahydro-2H-pyran-3-yl)-3-(methylamino)propan-2-ylcarbamoyl)piperidin-3-yl)methoxy)ethylcarbamate]
18 | > 50 | CNCC(CC12CCC(CC1)CC2)NC(=O)N1CCC[C@@H]([C@@H](OCCNC(=O)OC)c2cccc(Cl)c2)C1 (stereo partly drawn) [I*-129a, methyl 2-((R)-((3R)-1-(1-(bicyclo[2.2.2]octan-1-yl)-3-(methylamino)propan-2-ylcarbamoyl)piperidin-3-yl)(3-chlorophenyl)methoxy)ethylcarbamate]
19 | < 20 | CNC[C@H](CC1CCOCC1)NC(=O)N1CCC[C@@H]([C@@H](OCCNC(=O)OC)c2cc(F)cc(Cl)c2)C1 [I*-121a, methyl 2-((R)-(3-chloro-5-fluorophenyl)((R)-1-((S)-1-(methylamino)-3-(tetrahydro-2H-pyran-4-yl)propan-2-ylcarbamoyl)piperidin-3-yl)methoxy)ethylcarbamate]
